Converted amounts (≈) assume the structure as drawn.
Test system: Mycobacterium tuberculosis
Experiment: Antitubercular activity against Mycobacterium tuberculosis H37Rv ATCC 27294 by microplate Alamar blue assay
Type: functional

Structure (SMILES) | MIC [µg/mL]
C/C=C(/C)C(=O)O[C@@H]1c2c(C)coc2C(=O)[C@@H]2[C@@H](O)CC[C@H](C)[C@@]12C | 114 (≈ 329 µM)
CCC(C)C(=O)O[C@@H]1c2c(C)coc2C(=O)[C@@H]2[C@@H](O)CC[C@H](C)[C@@]12C (some centres not stated) | 119 (≈ 342 µM)
CC(=O)c1ccc(O)cc1 [4-HYDROXYACETOPHENONE] | 121 (≈ 889 µM)
C=C(C)[C@@H]1CC[C@]2(C(=O)O)CC[C@]3(C)[C@H](CC[C@@H]4[C@@]5(C)CC[C@H](O)C(C)(C)[C@@H]5CC[C@]43C)[C@@H]12 [BETULINIC ACID] | 32 (≈ 70.1 µM)
CC1(C)CC[C@]2(C(=O)O)CC[C@]3(C)C(=CC[C@@H]4[C@@]5(C)CC[C@H](O)C(C)(C)[C@@H]5CC[C@]43C)[C@@H]2C1 [OLEANOLIC_ACID] | 64 (≈ 140 µM)
CO[C@H]1/C=C/O[C@@]2(C)Oc3c(C)c(O)c4c(O)c(c(/C=N/N5CCN(C)CC5)c(O)c4c3C2=O)NC(=O)/C(C)=C\C=C\[C@H](C)[C@H](O)[C@@H](C)[C@@H](O)[C@@H](C)[C@H](OC(C)=O)[C@@H]1C [RIFAMPIN] | 0.03 (≈ 0.0365 µM)
C[C@H]1[C@H](C)CC[C@]2(C(=O)O)CC[C@]3(C)C(=CC[C@@H]4[C@@]5(C)CC[C@H](O)C(C)(C)[C@@H]5CC[C@]43C)[C@H]12 [URSOLIC ACID] | 32 (≈ 70.1 µM)
